Data set [1] can be described thus: Kinetics of complexation with bismuth (III) by UV/Vis spectroscopy. The format is physicochemical. To be noted: 1.65×10^-4 M each, stirring at ambient temperature. Here is the method:
(§1) The kinetics of complexation of Me-DODPA chelates with bismuth (III) and lead (II) were studied by UV/Vis spectroscopy.
An aqueous solution of Bi(NO3)3.5H2O (1.65×10^−4 M) was added to an aqueous solution of Me-DODPA (1.65×10^−4M). The UV/Vis spectra were recorded at different reaction times.

The nature of data set [2]: Kinetics of complexation with lead (II) by UV/Vis spectroscopy. The format is physicochemical. As to conditions: equimolar 0.74×10^-4 M, pH=7.
Excerpt: as §1
Referring to FIG. 4, a total complexation of Me-DODPA with lead (II) was observed ten minutes after the equimolar mixing (0.74×10^−4 M) of an aqueous solution of PbCl2 and an aqueous solution of Me-DODPA at pH=7.

A short description of data set [3]: 1H NMR competition with DOTA for complexation of bismuth (III). In kind it is physicochemical. The procedure:
As regards the chelate of Me-DODPA and bismuth (III) or DODPA and bismuth (III), the thermodynamic stability constants were evaluated by NMR ^1H (in a concentration of 10^−2 M) in studying the competitivity of the complexation of bismuth (III) with Me-DODPA or DODPA and DOTA. Indeed, such a constant cannot be measured directly by potentiometery for the bismuth chelates
A mole equivalent of […] was added to an equimolar solution of DODPA and DOTA at pH=1. The pH was then adjusted to 3 and an NMR spectrum was recorded. After five days at 25° C., it was observed that about 40% of the DODPA had been complexated with bismuth (III). […] Chem., 2003, 42, 2342-2349, is about 30.3.

The nature of data set [4]: In vitro stability of the radio-labeled chelate in human plasma. The format is in vitro ADME. The procedure: The stability of the serum and of the in vitro chelate were also studied by TLC and by HPLC.
For the stability of the serum, 200 μL of radiomarked Me-DODPA^2− solution (activity: 1 MBq, radiochemical purity: 95%) were mixed with 800 μL of human plasma. The plasma stability values were controlled in comparison with free ^213Bi, after 1 and 2 hours of incubation (about 1 and 2 half-lives) at ambient temperature by direct gel permeation chromatography on plasma in a PD-10 column and by TLC analysis of this supernatant after precipitation of the plasma proteins with ammonium sulfate. The TLC analysis was performed under the same conditions as earlier. After precipitation, the activity in the precipitate was measured (78.8%) as also the activity in the supernatant ([…]).

Data set [5] can be described thus: pM value (free lead concentration) of lead (II) chelates. In kind it is physicochemical. To be noted: pH 7.4, Pb(II) 10 μM, ligand concentration ten times greater. The procedure:
(§2) For the DODPA or Me-DODPA chelates with lead (II), the thermodynamic stability constant pK was determined directly by potentiometery at 25° C., for a concentration of 0.10 M in KNO3. […] The pM values corresponding to the non-chelated lead concentrations were therefore computed for the DODPA or Me-DODPA chelates with lead (II) and compared with the value known for the DOTA chelate with lead (II). This value pM is defined by the negative logarithm of the free metal concentration at a pH of 7.4 and with a concentration of Pb(II) of 10 μM and a ligand concentration that is ten times greater. A pM value of 12.3 was measured for the chelate of DODPA and lead (II) and 14.9 for the chelate of Me-DODPA and lead (II) while the known pM value for the complex of DOTA and lead (II) is 18.4

Data set [6] is described as follows: Thermodynamic stability constant pK of lead (II) chelates by potentiometry. The format is physicochemical. To be noted: 25° C., 0.10 M in KNO3. Here is the method: as §2
Data set [7] can be described thus: Kinetics of dissociation of complexes in DCl 0.1 M by NMR. The format is physicochemical. Here is the method:
The kinetics of dissociation of these complexes were also studied by NMR. In this context, the [Bi(Me-DODPA)](NO3) and [Pb(Me-DODPA)] complexes were dissolved in DCl 0.1 M.

[8] abbreviates: human plasma, ammonium sulfate precipitation.

For the molecule `CN1CCN(Cc2cccc(C(=O)O)n2)CCN(C)CCN(Cc2cccc(C(=O)O)n2)CC1` [Me-DODPA], in data set [1], the “time to total complexation with bismuth (III)” value was 30 min. In addition, in data set [2], the “time to total complexation with lead (II)” value was “ten”. Also, the “bismuth (III) complexated in equimolar mixture of ligand and DOTA” value in data set [3] (equimolar mixture of Me-DODPA and DOTA) is “the totality of the bismuth (III) was complexated by the Me-DODPA”.

In the case of `CN1CCN(Cc2cccc(C(=O)[O-])n2)CCN(C)CCN(Cc2cccc(C(=O)[O-])n2)CC1.CN1CCN(Cc2cccc(C(=O)[O-])n2)CCN(C)CCN(Cc2cccc(C(=O)[O-])n2)CC1.CN1CCN(Cc2cccc(C(=O)[O-])n2)CCN(C)CCN(Cc2cccc(C(=O)[O-])n2)CC1.[213Bi+3].[213Bi+3]` [(^213Bi(Me-DODPA))^+], the “stability in human plasma” value in data set [4] (1 and 2 hours of incubation at ambient temperature) was “stable in human plasma for at least two half-lives”. For the same molecule, the “radioactivity of the supernatant detected at Fr=0.5 (intact chelate), TLC” value in data set [4] (human plasma supernatant after protein precipitation) is recorded as “more than 90%”. Also, in data set [4] (setting [8]), the “activity in the precipitate after precipitation of plasma proteins” value was 78.8% and the “activity in the supernatant after precipitation of plasma proteins” value was 3.8%.

On to `O=C([O-])c1cccc(CN2CCNCCN(Cc3cccc(C(=O)[O-])n3)CCNCC2)n1.[Pb+2]` [Pb(DODPA)], for which the “pM value (negative logarithm of the free metal concentration)” value in data set [5] is 12.3. Besides, in data set [6], the “thermodynamic stability constant pK” value came out at 17.09.

With `CN1CCN(Cc2cccc(C(=O)[O-])n2)CCN(C)CCN(Cc2cccc(C(=O)[O-])n2)CC1.[Pb+2]` [[Pb(Me-DODPA)]], the “pM value (negative logarithm of the free metal concentration)” value in data set [5] came to 14.9. Also, the “dissociation of the complex” value in data set [7] is “total dissociation of the complex [Pb(Me-DODPA)] was observed at the end of seven days”. The “thermodynamic stability constant pK” value in data set [6] is on record as 18.74.

Turning to `O=C(O)c1cccc(CN2CCNCCN(Cc3cccc(C(=O)O)n3)CCNCC2)n1` [DODPA], in data set [3] (equimolar ligand and DOTA, one mole equivalent Bi, pH 3, five days at 25° C., 10^-2 M), the “ligand complexated with bismuth (III) in competition with DOTA” value is listed as “about 40%”.
